According to paper PMC6255697, “The major nectar protein of Brassica rapa is a non-specific lipid transfer protein, BrLTP2.1, with strong antifungal activity” (Journal of Experimental Botany, 2018):

What was measured:
BrLTP2.1 [1] = molecular target: T1, BrLTP2.1 (Brassica rapa, UniProt A0A8D9LMK4); assay: TNS displacement fluorescence; assay type: binding; conditions: 2.5 uM protein and 2.5 uM TNS, ligand 0-10 uM, pH 7.0; competitive with TNS
T1 construct: gene BRAPAZ1V2_A03P14030.2; predicted mature protein, residues 27-98 of 98 (signal peptide removed), amplified from genomic DNA; N-terminal T7-tag and C-terminal His6 kept; pET21a(+) in E. coli SHuffle T7 Express lysY
T1 sequence (A0A8D9LMK4 entry or part of it): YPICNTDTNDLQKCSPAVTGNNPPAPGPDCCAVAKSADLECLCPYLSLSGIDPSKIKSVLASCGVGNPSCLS

BrLTP2.1 [2] = molecular target: T1, BrLTP2.1; assay: TNS displacement fluorescence; protein lipid overlay; assay type: binding; conditions: 2.5 uM protein and 2.5 uM TNS, ligand 0-10 uM, pH 7.0; competitive with TNS

Row | SMILES | TNS displacement fluorescence (BrLTP2.1 [1]) | TNS displacement fluorescence; protein lipid overlay (BrLTP2.1 [2])
1 | CCCCCCCCCCCCCCCC(=O)O [palmitic acid] | Each of the three free fatty acids tested strongly reduced TNS-dependent fluorescence | –
2 | CCCCCCCCCCCCCCCCCC(=O)O [stearic acid] | – | Each of the three free fatty acids tested strongly reduced TNS-dependent fluorescence
